Literature values in patent US6469022B1, “Method, compositions and kits for increasing the oral bioavailability of pharmaceutical agents” (Smith Kline Beecham, Corporation, priority 1997, dated 2002).
Entries after “also recorded” stand apart in the source; their conditions may differ. One block for each compound: values may come before it.

How the values were obtained:
P-glycoprotein = P-glycoprotein (Homo sapiens, UniProt P08183)
[1] = in vivo
[2] = WO97/15269, Broder et al
[3] = oral administration
tumour = conditions: up to 160 mg/kg/day, Stuffness et al.
metastatic breast cancer = conditions: taxane-failure patients with metastatic breast cancer; continuous 96-hour infusion every three weeks

Sequence of P-glycoprotein (P08183 whole entry): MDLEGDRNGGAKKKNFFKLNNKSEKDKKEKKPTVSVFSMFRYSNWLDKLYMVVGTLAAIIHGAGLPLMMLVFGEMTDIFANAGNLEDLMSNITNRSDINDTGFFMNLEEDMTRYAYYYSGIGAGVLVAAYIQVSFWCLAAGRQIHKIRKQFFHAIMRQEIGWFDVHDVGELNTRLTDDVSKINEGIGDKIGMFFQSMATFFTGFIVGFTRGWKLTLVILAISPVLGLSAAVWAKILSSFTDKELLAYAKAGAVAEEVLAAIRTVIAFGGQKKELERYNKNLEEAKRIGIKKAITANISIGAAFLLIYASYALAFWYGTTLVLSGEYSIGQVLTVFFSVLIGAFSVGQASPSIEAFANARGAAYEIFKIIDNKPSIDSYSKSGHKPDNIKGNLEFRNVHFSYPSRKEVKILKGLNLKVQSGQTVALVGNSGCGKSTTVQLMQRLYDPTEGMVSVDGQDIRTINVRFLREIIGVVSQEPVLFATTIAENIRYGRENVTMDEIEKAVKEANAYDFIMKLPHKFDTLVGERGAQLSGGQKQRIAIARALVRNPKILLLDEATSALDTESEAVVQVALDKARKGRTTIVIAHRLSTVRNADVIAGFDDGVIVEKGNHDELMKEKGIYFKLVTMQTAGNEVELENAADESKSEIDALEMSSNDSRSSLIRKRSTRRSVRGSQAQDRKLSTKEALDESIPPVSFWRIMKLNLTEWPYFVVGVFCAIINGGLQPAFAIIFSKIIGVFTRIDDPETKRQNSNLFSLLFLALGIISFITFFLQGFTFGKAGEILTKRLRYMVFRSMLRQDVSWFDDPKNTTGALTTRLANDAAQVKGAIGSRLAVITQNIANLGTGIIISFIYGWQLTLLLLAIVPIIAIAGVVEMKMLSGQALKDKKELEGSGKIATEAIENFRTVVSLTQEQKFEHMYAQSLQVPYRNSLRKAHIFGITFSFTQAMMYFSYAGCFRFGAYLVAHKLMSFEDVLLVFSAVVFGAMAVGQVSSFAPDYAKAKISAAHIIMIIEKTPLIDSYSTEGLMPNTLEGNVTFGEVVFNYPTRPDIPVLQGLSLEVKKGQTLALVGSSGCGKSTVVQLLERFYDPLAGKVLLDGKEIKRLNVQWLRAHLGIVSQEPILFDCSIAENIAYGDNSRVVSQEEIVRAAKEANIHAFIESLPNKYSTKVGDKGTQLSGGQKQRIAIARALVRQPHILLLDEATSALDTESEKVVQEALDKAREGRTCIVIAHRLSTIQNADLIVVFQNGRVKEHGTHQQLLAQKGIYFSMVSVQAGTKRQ

Structure (SMILES): OCCN(CCO)c1nc(N2CCCCC2)c2nc(N(CCO)CCO)nc(N3CCCCC3)c2n1 [dipyridamole]
- oral bioavailability-enhancing activity [2]: less enhancing activity

Structure (SMILES): CC(=O)O[C@H]1C(=O)[C@@]2(C)[C@H]([C@H](OC(=O)c3ccccc3)[C@]3(O)C[C@H](OC(=O)[C@H](O)[C@@H](NC(=O)c4ccccc4)c4ccccc4)C(C)=C1C3(C)C)[C@]1(OC(C)=O)CO[C@@H]1C[C@@H]2O [paclitaxel, 5β,20-epoxy-1,2α,4,7β,10β,13α-hexa-hydroxytax-11-en-9-one 4,10-diacetate 2-benzoate 13-ester with (2R,3S)-N-benzoyl-3-phenylisoserine]
- absorbed when administered orally [3]: less than 1%
- antitumour activity on oral administration (tumour): no evidence of antitumour activity
- level at which inhibition of tubulin disassembly occurs (tubulin): about 0.1 μM; also recorded: about 85 ng/ml
- level at which inhibition of protein isoprenylation occurs (protein isoprenylation): about 0.03 μM; also recorded: about 25 ng/ml
- response rate (metastatic breast cancer): 27%

Structure (SMILES): CC(=O)[C@H]1CC[C@H]2[C@@H]3CCC4=CC(=O)CC[C@]4(C)[C@H]3CC[C@]12C [progesterone]
- oral bioavailability-enhancing activity [2]: none

Next, values leading:

- P-glycoprotein inhibition (P-glycoprotein): P-glycoprotein inhibitor
- bioavailability across the gut [1]: very poor bioavailability
Structure (SMILES): COc1cc2c(cc1OC)CN(CCc1ccc(NC(=O)c3cccc4c(=O)c5cccc(OC)c5[nH]c34)cc1)CC2 [GF120918, 9,10-dihydro-5-methoxy-9oxo-N-[4-[2-(1,2,3,4-tetrahydro-6,7,-dimethoxy-2-isoquinolinyl)ethyl]phenyl]-4-acridinecarboxamide]

- oral bioavailability-enhancing activity [2]: significant
Structure (SMILES): CC(=O)N1CCN(c2ccc(OCC3COC(Cn4ccnc4)(c4ccc(Cl)cc4Cl)O3)cc2)CC1 (stereo not shown) [ketoconazole]
